# Reference: patent US20240092835A1, “NOVEL PEPTIDES CAPABLE OF ALTERING NK CELL ACTIVITY” (Massachusetts Institute of Technology, priority 2022, published 2024)
# Entries after “also recorded” stand apart in the source; their conditions may differ. Where no end group is shown, it is not given here.
# How the values were obtained:
# CD94/NKG2C = CD94/NKG2C (Homo sapiens, UniProt P26717+Q13241); test: Steady-state surface plasmon resonance of peptide-HLA-E complex with CD94/NKG2C; format: binding; conditions: for Binding of peptide-HLA-E complexes to CD94/NKG2C normalized to a theoretical Rmax: steady-state SPR
# Experimental: Binding affinity of novel peptides linked to HLA-E was determined using surface plasmon resonance (SPR), a methodology used to study protein-protein interactions (Tables 15-19). The peptide-HLA-E complex (generated as a single chain trimer) was immobilized on the sensor chip surface and CD94/NKG2A or CD94/NKG2C were flowed over. Steady-state surface plasmon resonance experiments were performed with a Biacore T200 instrument. CD94/NKG2x in HBS-EP+ buffer was injected as analyte in a concentration range of 0.1 μM to 102.4 μM and flow rate of 10 μL/min at 25° C. Data was fit with Prism 9.4 (GraphPad Software Inc; San Diego CA) to a “one site, specific binding” model. Series S CM5 chips were coupled to neutravidin and utilized. Biotinylated pMHC was immobilized at approximately 400 RU. KD values calculated by Biacore software are reported. Rmax, fit values were calculated by Biacore software. Rmax, theoretical values were calculated using the analyte/ligand mass ratio (0.66) multiplied by the amount of ligand coupled to the chip.
# HLA-E = target: T1, HLA-E (Homo sapiens, UniProt P13747); test: HLA-E surface stabilization assay with RMA-S/HLA-E cells; format: cell-based; conditions: 30 μM peptide, 16 hours; for HLA-E surface expression stability (GeoMFI): anti-HLA-E antibody; for HLA-E surface expression stabilization strength, approximate GeoMFI: approximate value
# T1 construct: expressed in transfected cells; host or cells: RMA-S/HLA-E cells (antigen processing-defective lymphoma cell line)
# Experimental: HLA-E surface expression was assessed by measuring geometric mean fluorescence intensity (GeoMFI) in RMA-S cells following immunofluorescence staining with an anti-HLA-E antibody (Table 14). Increased GeoMFI was indicative of increased HLA-E surface expression stability following novel peptide exposures (FIG. 3).
# [1] = CD94/NKG2C concentration 0.1 μM
# [2] = CD94/NKG2C concentration 0.2 μM
# [3] = CD94/NKG2C concentration 0.4 μM
# [4] = CD94/NKG2C concentration 0.8 μM
# [5] = CD94/NKG2C concentration 1.6 μM
# [6] = CD94/NKG2C concentration 3.2 μM
# [7] = CD94/NKG2C concentration 6.4 μM
# [8] = CD94/NKG2C concentration 12.8 μM
# [9] = CD94/NKG2C concentration 25.6 μM
# [10] = CD94/NKG2C concentration 51.2 μM
# [11] = CD94/NKG2C concentration 102.4 μM
# [12] = CD94/NKG2C analyte concentration 0 μM
# [13] = CD94/NKG2C analyte concentration 0.1 μM
# [14] = CD94/NKG2C analyte concentration 0.2 μM
# [15] = CD94/NKG2C analyte concentration 0.4 μM
# [16] = CD94/NKG2C analyte concentration 0.8 μM
# [17] = CD94/NKG2C analyte concentration 1.6 μM
# [18] = CD94/NKG2C analyte concentration 3.2 μM
# [19] = CD94/NKG2C analyte concentration 6.4 μM
# [20] = CD94/NKG2C analyte concentration 12.8 μM
# [21] = CD94/NKG2C analyte concentration 25.6 μM
# [22] = CD94/NKG2C analyte concentration 51.2 μM
# [23] = CD94/NKG2C analyte concentration 102.4 μM
# CD94/NKG2C, sequence (P26717 94-231 limits assumed): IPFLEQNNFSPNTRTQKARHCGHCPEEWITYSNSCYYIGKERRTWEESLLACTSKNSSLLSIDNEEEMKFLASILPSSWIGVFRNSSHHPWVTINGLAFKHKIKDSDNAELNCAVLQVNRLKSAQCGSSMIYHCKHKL
# CD94/NKG2C, sequence (Q13241 32-179 limits assumed): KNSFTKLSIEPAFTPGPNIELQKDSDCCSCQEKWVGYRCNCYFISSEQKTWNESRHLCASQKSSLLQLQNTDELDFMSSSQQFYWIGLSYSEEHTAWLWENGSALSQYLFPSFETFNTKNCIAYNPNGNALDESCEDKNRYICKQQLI
# T1 sequence (P13747 22-358): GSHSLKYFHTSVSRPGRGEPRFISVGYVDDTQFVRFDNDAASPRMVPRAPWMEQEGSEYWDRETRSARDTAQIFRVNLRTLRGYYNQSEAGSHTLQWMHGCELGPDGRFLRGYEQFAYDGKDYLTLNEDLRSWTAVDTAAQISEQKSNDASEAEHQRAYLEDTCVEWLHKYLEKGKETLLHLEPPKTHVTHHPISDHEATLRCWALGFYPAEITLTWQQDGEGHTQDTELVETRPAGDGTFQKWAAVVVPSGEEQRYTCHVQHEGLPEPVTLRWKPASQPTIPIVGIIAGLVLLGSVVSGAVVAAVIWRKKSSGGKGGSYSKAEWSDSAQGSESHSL
# T1 sequence (P61769 21-119 partner): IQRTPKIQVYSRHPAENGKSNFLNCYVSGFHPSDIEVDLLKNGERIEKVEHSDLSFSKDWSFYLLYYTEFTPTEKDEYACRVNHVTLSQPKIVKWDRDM
Sequence,binding of peptide-HLA-E complex to CD94/NKG2C normalized to a fitted Rmax (CD94/NKG2C; CD94/NKG2C concentration 0 μM),binding of peptide-HLA-E complex to CD94/NKG2C normalized to a fitted Rmax (CD94/NKG2C; [1]),binding of peptide-HLA-E complex to CD94/NKG2C normalized to a fitted Rmax (CD94/NKG2C; [2]),binding of peptide-HLA-E complex to CD94/NKG2C normalized to a fitted Rmax (CD94/NKG2C; [3]),binding of peptide-HLA-E complex to CD94/NKG2C normalized to a fitted Rmax (CD94/NKG2C; [4]),binding of peptide-HLA-E complex to CD94/NKG2C normalized to a fitted Rmax (CD94/NKG2C; [5]),binding of peptide-HLA-E complex to CD94/NKG2C normalized to a fitted Rmax (CD94/NKG2C; [6]),binding of peptide-HLA-E complex to CD94/NKG2C normalized to a fitted Rmax (CD94/NKG2C; [7]),binding of peptide-HLA-E complex to CD94/NKG2C normalized to a fitted Rmax (CD94/NKG2C; [8]),binding of peptide-HLA-E complex to CD94/NKG2C normalized to a fitted Rmax (CD94/NKG2C; [9]),binding of peptide-HLA-E complex to CD94/NKG2C normalized to a fitted Rmax (CD94/NKG2C; [10]),binding of peptide-HLA-E complex to CD94/NKG2C normalized to a fitted Rmax (CD94/NKG2C; [11]),Binding of peptide-HLA-E complexes to CD94/NKG2C normalized to a theoretical Rmax (CD94/NKG2C; [12]),Binding of peptide-HLA-E complexes to CD94/NKG2C normalized to a theoretical Rmax (CD94/NKG2C; [13]),Binding of peptide-HLA-E complexes to CD94/NKG2C normalized to a theoretical Rmax (CD94/NKG2C; [14]),Binding of peptide-HLA-E complexes to CD94/NKG2C normalized to a theoretical Rmax (CD94/NKG2C; [15]),Binding of peptide-HLA-E complexes to CD94/NKG2C normalized to a theoretical Rmax (CD94/NKG2C; [16]),Binding of peptide-HLA-E complexes to CD94/NKG2C normalized to a theoretical Rmax (CD94/NKG2C; [17]),Binding of peptide-HLA-E complexes to CD94/NKG2C normalized to a theoretical Rmax (CD94/NKG2C; [18]),Binding of peptide-HLA-E complexes to CD94/NKG2C normalized to a theoretical Rmax (CD94/NKG2C; [19]),other results
"QMPSRSLLF [human1, QMPSRSLLF]",−0.007,0.007,0.017,0.038,0.076,0.144,0.246,0.394,0.564,0.723,0.832,0.912,−0.004,0.004,0.010,0.023,0.047,0.088,0.151,0.242,"Binding of peptide-HLA-E complexes to CD94/NKG2C normalized to a theoretical Rmax (CD94/NKG2C; [20]): 0.346; Binding of peptide-HLA-E complexes to CD94/NKG2C normalized to a theoretical Rmax (CD94/NKG2C; [21]): 0.444; Binding of peptide-HLA-E complexes to CD94/NKG2C normalized to a theoretical Rmax (CD94/NKG2C; [22]): 0.511; Binding of peptide-HLA-E complexes to CD94/NKG2C normalized to a theoretical Rmax (CD94/NKG2C; [23]): 0.560; HLA-E surface expression stabilization strength (in words) (HLA-E): moderate; HLA-E surface expression stability (GeoMFI) (HLA-E; Trial 1): 2461 GeoMFI; HLA-E surface expression stability (GeoMFI) (HLA-E; Trial 2): 1755 GeoMFI; HLA-E surface expression stability (GeoMFI) (HLA-E; Trial 3): 2273 GeoMFI; HLA-E surface expression stability (GeoMFI) (HLA-E; Trial 4): 2496 GeoMFI; HLA-E surface expression stabilization strength, approximate GeoMFI (HLA-E): approximately 2×10^3 GeoMFI"
"TAPARTMFL [human13, TAPARTMFL]",0.007,0.017,0.023,0.040,0.067,0.117,0.202,0.317,0.462,0.613,0.746,0.904,0.005,0.012,0.017,0.030,0.050,0.086,0.149,0.234,"Binding of peptide-HLA-E complexes to CD94/NKG2C normalized to a theoretical Rmax (CD94/NKG2C; [20]): 0.342; Binding of peptide-HLA-E complexes to CD94/NKG2C normalized to a theoretical Rmax (CD94/NKG2C; [21]): 0.454; Binding of peptide-HLA-E complexes to CD94/NKG2C normalized to a theoretical Rmax (CD94/NKG2C; [22]): 0.552; Binding of peptide-HLA-E complexes to CD94/NKG2C normalized to a theoretical Rmax (CD94/NKG2C; [23]): 0.669; HLA-E surface expression stabilization strength (in words) (HLA-E): lower; HLA-E surface expression stability (GeoMFI) (HLA-E; Trial 1): 851 GeoMFI; HLA-E surface expression stability (GeoMFI) (HLA-E; Trial 2): 887 GeoMFI; HLA-E surface expression stability (GeoMFI) (HLA-E; Trial 3): 673 GeoMFI; HLA-E surface expression stability (GeoMFI) (HLA-E; Trial 4): 1187 GeoMFI; HLA-E surface expression stabilization strength, approximate GeoMFI (HLA-E): approximately 1×10^3 GeoMFI"
"TGPWRSLWI [human3, TGPWRSLWI]",0.006,0.008,0.007,0.011,0.016,0.026,0.044,0.078,0.130,0.219,0.353,0.537,0.002,0.003,0.003,0.004,0.006,0.010,0.017,0.030,Binding of peptide-HLA-E complexes to CD94/NKG2C normalized to a theoretical Rmax (CD94/NKG2C; [20]): 0.050; Binding of peptide-HLA-E complexes to CD94/NKG2C normalized to a theoretical Rmax (CD94/NKG2C; [21]): 0.084; Binding of peptide-HLA-E complexes to CD94/NKG2C normalized to a theoretical Rmax (CD94/NKG2C; [22]): 0.135; Binding of peptide-HLA-E complexes to CD94/NKG2C normalized to a theoretical Rmax (CD94/NKG2C; [23]): 0.205; HLA-E surface expression stability (GeoMFI) (HLA-E; Trial 1): 510 GeoMFI; HLA-E surface expression stability (GeoMFI) (HLA-E; Trial 2): 428 GeoMFI; HLA-E surface expression stability (GeoMFI) (HLA-E; Trial 3): 421 GeoMFI; HLA-E surface expression stability (GeoMFI) (HLA-E; Trial 4): 596 GeoMFI; HLA-E surface expression stabilization strength (in words) (HLA-E; listed as GTF3C5293-301): closest to the experimental negative control (DMSO); also recorded: lowest
"TLPKRGLFL [human2, TLPKRGLFL]",−0.005,0.003,0.009,0.023,0.046,0.089,0.168,0.281,0.443,0.621,0.755,0.867,−0.003,0.002,0.007,0.017,0.034,0.066,0.124,0.207,"Binding of peptide-HLA-E complexes to CD94/NKG2C normalized to a theoretical Rmax (CD94/NKG2C; [20]): 0.326; Binding of peptide-HLA-E complexes to CD94/NKG2C normalized to a theoretical Rmax (CD94/NKG2C; [21]): 0.457; Binding of peptide-HLA-E complexes to CD94/NKG2C normalized to a theoretical Rmax (CD94/NKG2C; [22]): 0.555; Binding of peptide-HLA-E complexes to CD94/NKG2C normalized to a theoretical Rmax (CD94/NKG2C; [23]): 0.638; HLA-E surface expression stabilization strength (in words) (HLA-E): moderate; HLA-E surface expression stability (GeoMFI) (HLA-E; Trial 1): 2019 GeoMFI; HLA-E surface expression stability (GeoMFI) (HLA-E; Trial 2): 2029 GeoMFI; HLA-E surface expression stability (GeoMFI) (HLA-E; Trial 3): 1731 GeoMFI; HLA-E surface expression stability (GeoMFI) (HLA-E; Trial 4): 2795 GeoMFI; HLA-E surface expression stabilization strength, approximate GeoMFI (HLA-E): approximately 2×10^3 GeoMFI"
